What all share (format): functional
For one assay, the system named is Candida albicans. In words: Antifungal activity against Candida albicans isolate NCL1 after 48 hrs by broth dilution method. The following applies: isolate NCL1, 48 h. In general terms: In broth dilution the organism is exposed to a series of concentrations in liquid medium.
The next assay has as its system Benjaminiella poitrasii. In words: Antifungal activity against Benjaminiella poitrasii isolate NCL3 after 24 hrs by M38-P broth dilution method. The following applies: isolate NCL3, 24 h.
For the next assay, the system named is Cryptococcus neoformans. In words: Antifungal activity against Cryptococcus neoformans isolate NCL2 after 72 hrs by broth dilution method. The following applies: isolate NCL2, 72 h.
The next assay relates to Yarrowia lipolytica. The experiment in a line: Antifungal activity against Yarrowia lipolytica isolate NCL4 after 24 hrs by broth dilution method. Conditions: isolate NCL4, 24 h.
A further assay relates to Escherichia coli. The experiment in a line: Antibacterial activity against Escherichia coli NCIM 2574 after 24 hrs by NCCLS method. The following applies: NCIM 2574, 24 h.
Another assay concerns Fusarium oxysporum. In words: Antifungal activity against Fusarium oxysporum isolate NCL5 after 48 hrs by broth dilution method. Conditions: isolate NCL5, 48 h.
The next assay concerns Staphylococcus aureus. In words: Antibacterial activity against Staphylococcus aureus NCIM 2122 after 24 hrs by NCCLS method. Conditions: NCIM 2122, 24 h.

Values after ≈ are worked out from the molar mass of the structure shown.

`CC(C)(C)[Si](C)(C)O[C@H]1CC[C@@]2(C)C(=CC[C@H]3[C@@H]4CC[C@H]([C@@](C)(O)c5nccs5)[C@@]4(C)CC[C@@H]32)C1`: the MIC90 against Candida albicans is 16 µg/mL (≈ 31 µM); in the assay with Benjaminiella poitrasii, above 64 µg/mL; in the assay on Cryptococcus neoformans, above 64 µg/mL; against Yarrowia lipolytica, above 64 µg/mL; in the assay on Escherichia coli it was 8 µg/mL (≈ 15.5 µM); in the assay with Fusarium oxysporum it was above 64 µg/mL. The same compound had an MIC90 in the assay with Staphylococcus aureus of 16 µg/mL (≈ 31 µM).

As for `CC[C@H]1OC(=O)[C@H](C)[C@@H](O[C@H]2C[C@@](C)(OC)[C@@H](O)[C@H](C)O2)[C@H](C)[C@@H](O[C@@H]2O[C@H](C)C[C@H](N(C)C)[C@H]2O)[C@](C)(O)C[C@@H](C)C(=O)[C@H](C)[C@@H](O)[C@]1(C)O` [ERYTHROMYCIN], the MIC90 in the assay with Escherichia coli is above 64 µg/mL; with Staphylococcus aureus, 32 µg/mL (≈ 43.6 µM).

For the compound `CC(C)(C)[Si](C)(C)O[C@H]1CC[C@@]2(C)[C@@H](CC[C@@H]3[C@@H]2CC[C@@]2(C)[C@H]3CC[C@@H]2[C@@](C)(O)c2nccs2)C1`, the MIC90 with Candida albicans is above 64 µg/mL; in the assay on Benjaminiella poitrasii it was 32 µg/mL (≈ 61.8 µM); in the assay with Cryptococcus neoformans it was above 64 µg/mL; against Yarrowia lipolytica it was 64 µg/mL (≈ 124 µM); in the assay with Escherichia coli, 16 µg/mL (≈ 30.9 µM); in the assay with Fusarium oxysporum it was 64 µg/mL (≈ 124 µM). This compound showed an MIC90 with Staphylococcus aureus of 16 µg/mL (≈ 30.9 µM).

On to `CC(=O)[C@H]1[C@H](c2ccccn2)C[C@H]2[C@@H]3CC=C4C[C@@H](O)CC[C@]4(C)[C@H]3CC[C@@]21C`, for which the MIC90 in the assay on Candida albicans was 32 µg/mL (≈ 81.3 µM); in the assay on Benjaminiella poitrasii, 32 µg/mL (≈ 81.3 µM); against Cryptococcus neoformans it was above 64 µg/mL; against Yarrowia lipolytica it was 16 µg/mL (≈ 40.7 µM); in the assay with Escherichia coli, 16 µg/mL (≈ 40.7 µM); in the assay with Fusarium oxysporum, 64 µg/mL (≈ 163 µM). In addition, the MIC90 against Staphylococcus aureus was found to be 8 µg/mL (≈ 20.3 µM).

On to `C[C@@H]1[C@H](O)[C@@H](C)/C=C/C=C/C=C/C=C/C=C/C=C/C=C/[C@H](O[C@@H]2O[C@H](C)[C@@H](O)[C@H](N)[C@@H]2O)C[C@@H]2O[C@](O)(C[C@@H](O)C[C@@H](O)[C@H](O)CC[C@@H](O)C[C@@H](O)CC(=O)O[C@H]1C)C[C@H](O)[C@H]2C(=O)O` [AMPHOTERICIN B], for which the MIC90 against Candida albicans was found to be 2 µg/mL (≈ 2.16 µM); in the assay with Benjaminiella poitrasii, 16 µg/mL (≈ 17.3 µM); with Cryptococcus neoformans it was 16 µg/mL (≈ 17.3 µM); against Yarrowia lipolytica it was 16 µg/mL (≈ 17.3 µM); in the assay on Fusarium oxysporum it was 16 µg/mL (≈ 17.3 µM).

Regarding `CC(=O)O[C@H]1CC[C@@]2(C)[C@@H](CC[C@@H]3[C@@H]2CC[C@@]2(C)[C@H]3CC[C@@H]2[C@@](C)(O)c2nccs2)C1`, the MIC90 with Candida albicans was 8 µg/mL (≈ 18 µM); against Benjaminiella poitrasii, 16 µg/mL (≈ 35.9 µM); against Cryptococcus neoformans, 64 µg/mL (≈ 144 µM); with Yarrowia lipolytica, above 64 µg/mL; in the assay with Escherichia coli, 16 µg/mL (≈ 35.9 µM); against Fusarium oxysporum, 16 µg/mL (≈ 35.9 µM). Moreover, the MIC90 with Staphylococcus aureus is 16 µg/mL (≈ 35.9 µM).

Turning to `CC(=O)O[C@H]1CC[C@@]2(C)C(=CC[C@H]3[C@@H]4CC[C@H]([C@@](C)(O)c5ccccn5)[C@@]4(C)CC[C@@H]32)C1`, the MIC90 in the assay on Candida albicans was above 64 µg/mL; with Benjaminiella poitrasii, 32 µg/mL (≈ 73.1 µM); with Cryptococcus neoformans, above 64 µg/mL; in the assay on Yarrowia lipolytica, 16 µg/mL (≈ 36.6 µM); with Escherichia coli it was 8 µg/mL (≈ 18.3 µM); in the assay on Fusarium oxysporum, 64 µg/mL (≈ 146 µM). Also, the MIC90 in the assay on Staphylococcus aureus was 32 µg/mL (≈ 73.1 µM).

Take `CC(C)(C)[Si](C)(C)O[C@H]1CC[C@@]2(C)C(=CC[C@H]3[C@@H]4CC[C@H]([C@@](C)(O)c5ccccn5)[C@@]4(C)CC[C@@H]32)C1`: the MIC90 against Candida albicans was found to be 16 µg/mL (≈ 31.4 µM); against Benjaminiella poitrasii, 16 µg/mL (≈ 31.4 µM); in the assay with Cryptococcus neoformans, 32 µg/mL (≈ 62.8 µM); with Yarrowia lipolytica, 8 µg/mL (≈ 15.7 µM); against Escherichia coli, 16 µg/mL (≈ 31.4 µM); against Fusarium oxysporum, 8 µg/mL (≈ 15.7 µM). Besides, in the assay on Staphylococcus aureus, the MIC90 was 8 µg/mL (≈ 15.7 µM).

Turning to `CN(C)[C@@H]1C(O)=C(C(N)=O)C(=O)[C@@]2(O)C(O)=C3C(=O)c4c(O)cccc4[C@@](C)(O)[C@H]3C[C@@H]12` [TETRACYCLINE], the MIC90 stood at 8 µg/mL (≈ 18 µM) against Escherichia coli and 16 µg/mL (≈ 36 µM) in the assay on Staphylococcus aureus.

As for `CC(=O)O[C@H]1CC[C@@]2(C)C(=CC[C@H]3[C@@H]4C[C@@H](c5ccccn5)[C@H](C(C)=O)[C@@]4(C)CC[C@@H]32)C1`, the MIC90 against Candida albicans is above 64 µg/mL; in the assay with Benjaminiella poitrasii it was 64 µg/mL (≈ 147 µM); in the assay with Cryptococcus neoformans, 32 µg/mL (≈ 73.5 µM); with Yarrowia lipolytica it was above 64 µg/mL; in the assay with Escherichia coli, 16 µg/mL (≈ 36.7 µM); in the assay with Fusarium oxysporum, 32 µg/mL (≈ 73.5 µM). The MIC90 in the assay with Staphylococcus aureus is 16 µg/mL (≈ 36.7 µM).

Consider `C[C@]12CC[C@H]3[C@@H](CC=C4C[C@@H](O)CC[C@@]43C)[C@@H]1CC[C@@H]2[C@@](C)(O)c1ccccn1`, for which the MIC90 against Candida albicans is above 64 µg/mL; in the assay on Benjaminiella poitrasii, 32 µg/mL (≈ 80.9 µM); against Cryptococcus neoformans, 64 µg/mL (≈ 162 µM); in the assay with Yarrowia lipolytica, 32 µg/mL (≈ 80.9 µM); against Escherichia coli it was 16 µg/mL (≈ 40.4 µM); against Fusarium oxysporum, 16 µg/mL (≈ 40.4 µM). In the assay on Staphylococcus aureus, this compound had an MIC90 of 8 µg/mL (≈ 20.2 µM).

`CC(=O)[C@H]1[C@H](c2ccccn2)C[C@H]2[C@@H]3CC=C4C[C@@H](OS(C)(C)C(C)(C)C)CC[C@]4(C)[C@H]3CC[C@@]21C`: the MIC90 was 32 µg/mL (≈ 62.5 µM) in the assay with Candida albicans; 64 µg/mL (≈ 125 µM) with Benjaminiella poitrasii; above 64 µg/mL against Cryptococcus neoformans; 8 µg/mL (≈ 15.6 µM) against Yarrowia lipolytica; 16 µg/mL (≈ 31.3 µM) with Escherichia coli; 64 µg/mL (≈ 125 µM) with Fusarium oxysporum. Further, in the assay with Staphylococcus aureus, the MIC90 came out at 16 µg/mL (≈ 31.3 µM).

`CC(C)(C)[Si](C)(C)O[C@H]1CC[C@@]2(C)[C@@H](CC[C@@H]3[C@@H]2CC[C@@]2(C)[C@H]3CC[C@@H]2[C@@](C)(O)c2ccccn2)C1`: the MIC90 with Candida albicans was 32 µg/mL (≈ 62.5 µM); in the assay on Benjaminiella poitrasii it was 64 µg/mL (≈ 125 µM); against Cryptococcus neoformans, 16 µg/mL (≈ 31.3 µM); in the assay on Yarrowia lipolytica, above 64 µg/mL; against Escherichia coli it was 8 µg/mL (≈ 15.6 µM); against Fusarium oxysporum, 32 µg/mL (≈ 62.5 µM). In the assay on Staphylococcus aureus, this compound registered an MIC90 of 16 µg/mL (≈ 31.3 µM).

For the compound `OC(Cn1cncn1)(Cn1cncn1)c1ccc(F)cc1F` [FLUCONAZOLE], the MIC90 with Candida albicans turned out to be 32 µg/mL (≈ 104 µM); against Benjaminiella poitrasii it was 32 µg/mL (≈ 104 µM); in the assay on Cryptococcus neoformans, 32 µg/mL (≈ 104 µM); against Yarrowia lipolytica it was 64 µg/mL (≈ 209 µM); against Fusarium oxysporum it was 8 µg/mL (≈ 26.1 µM).

Regarding `C[C@]12CC[C@H](O)C[C@@H]1CC[C@@H]1[C@@H]2CC[C@@]2(C)[C@H]1CC[C@@H]2[C@@](C)(O)c1nccs1`, the MIC90 against Candida albicans was 64 µg/mL (≈ 159 µM); against Benjaminiella poitrasii, above 64 µg/mL; against Cryptococcus neoformans it was 32 µg/mL (≈ 79.3 µM); with Yarrowia lipolytica, above 64 µg/mL; with Escherichia coli, 16 µg/mL (≈ 39.6 µM); against Fusarium oxysporum it was above 64 µg/mL. The same compound gave an MIC90 in the assay on Staphylococcus aureus of 32 µg/mL (≈ 79.3 µM).

As to `C[C@]12CC[C@H](O)C[C@@H]1CC[C@@H]1[C@@H]2CC[C@@]2(C)[C@H]1CC[C@@H]2[C@@](C)(O)c1ccccn1`, the MIC90 was 32 µg/mL (≈ 80.5 µM) against Candida albicans; 64 µg/mL (≈ 161 µM) in the assay on Benjaminiella poitrasii; 64 µg/mL (≈ 161 µM) against Cryptococcus neoformans; 32 µg/mL (≈ 80.5 µM) against Yarrowia lipolytica; 8 µg/mL (≈ 20.1 µM) with Escherichia coli; above 64 µg/mL against Fusarium oxysporum. In the assay on Staphylococcus aureus, this compound had an MIC90 of 8 µg/mL (≈ 20.1 µM).

Regarding `CC(=O)O[C@H]1CC[C@@]2(C)C(=CC[C@H]3[C@@H]4CC[C@H]([C@@](C)(O)c5nccs5)[C@@]4(C)CC[C@@H]32)C1`, the MIC90 was above 64 µg/mL against Candida albicans; 32 µg/mL (≈ 72.1 µM) in the assay with Benjaminiella poitrasii; 32 µg/mL (≈ 72.1 µM) against Cryptococcus neoformans; above 64 µg/mL in the assay with Yarrowia lipolytica; 8 µg/mL (≈ 18 µM) against Escherichia coli; 64 µg/mL (≈ 144 µM) against Fusarium oxysporum. Besides, the MIC90 against Staphylococcus aureus amounted to 32 µg/mL (≈ 72.1 µM).

For the compound `CC(=O)O[C@H]1CC[C@@]2(C)[C@@H](CC[C@@H]3[C@@H]2CC[C@@]2(C)[C@H]3CC[C@@H]2[C@@](C)(O)c2ccccn2)C1`, the MIC90 against Candida albicans is 16 µg/mL (≈ 36.4 µM); against Benjaminiella poitrasii it was 16 µg/mL (≈ 36.4 µM); with Cryptococcus neoformans it was 64 µg/mL (≈ 146 µM); with Yarrowia lipolytica, 64 µg/mL (≈ 146 µM); in the assay with Escherichia coli it was 8 µg/mL (≈ 18.2 µM); against Fusarium oxysporum, above 64 µg/mL. Further, the MIC90 with Staphylococcus aureus was 16 µg/mL (≈ 36.4 µM).

Consider `C[C@]12CC[C@H]3[C@@H](CC=C4C[C@@H](O)CC[C@@]43C)[C@@H]1CC[C@@H]2[C@@](C)(O)c1nccs1`, for which the MIC90 against Candida albicans stood at 16 µg/mL (≈ 39.8 µM); in the assay with Benjaminiella poitrasii, 32 µg/mL (≈ 79.7 µM); with Cryptococcus neoformans it was 32 µg/mL (≈ 79.7 µM); with Yarrowia lipolytica, 32 µg/mL (≈ 79.7 µM); in the assay on Escherichia coli, 8 µg/mL (≈ 19.9 µM); in the assay on Fusarium oxysporum it was 64 µg/mL (≈ 159 µM). The same compound yielded an MIC90 against Staphylococcus aureus of 8 µg/mL (≈ 19.9 µM).

As usually defined, the MIC90 is an inhibitory concentration at the 90% level, which refers to growth in some studies and to a panel of isolates in others. A low value points to higher susceptibility.
